Data as given in patent US6593303B1, “Anti-tumor synergetic composition” (Pharmacia & Upjohn, S.p.A., priority 1999, dated 2003).

Assays:
[1] = tested on: A549 human lung carcinoma; assay: Antitumor activity on s.c. implanted A549 human lung carcinoma
[2] = tested on: disseminated L1210 murine leukemia; assay: Antileukemic activity against disseminated L1210 murine leukemia (cells injected iv)
MX1 mammary carcinoma = assay: Antitumor activity on s.c. injected MX1 mammary carcinoma; format: in vivo, mice
[3] = tested on: H207 human ovarian carcinoma; assay: Antitumor activity on s.c. implanted H207 human ovarian carcinoma
[4] = Table 2, CisPlatin alone 3 mg/kg/day iv q4dx2
[5] = Table 2, Ia alone 1.5 mg/kg/day iv q4dx3
[6] = Table 3, Ia alone 2 mg/kg/day iv +7,11,15
[7] = Ia alone 1 mg/kg/day iv day +1,2
[8] = Ia alone 0.5 mg/kg/day iv 8,12,16
[9] = Ia alone 1 mg/kg/day iv 8,12,16
[10] = Ia alone 1.5 mg/kg/day iv q4dx3
[11] = Table 3, Paclitaxel alone 22 mg/kg/day iv +9,13,17
[12] = Table 3, Paclitaxel alone 33 mg/kg/day iv +9,13,17
[13] = Paclitaxel alone 22 mg/kg/day iv q4dx3
[14] = Paclitaxel alone 33 mg/kg/day iv q4dx3
[15] = Taxotere alone 5 mg/kg/day iv 10,14,18
[16] = Taxotere alone 10 mg/kg/day iv 10,14,18

## N.N.[Cl][Pt][Cl] [CisPlatin]
[1]; [4]
  N° of Tumor-Free Survivors: 0/9
  T-C N° of days (tumor growth delay, 1 g): 0 days
  T.I. % (tumor inhibition): 16%
[1]; Table 2, CisPlatin alone 3 mg/kg/day iv q4dx2, day 18
  Body weight Reduction % (day): 2(18) %

## CC(=O)[C@]1(O)Cc2c(O)c3c(c(O)c2[C@@H](OC2CC(N4CC4)C(OS(C)(=O)=O)C(C)O2)C1)C(=O)c1ccccc1C3=O (some centres unmarked) [Ia, 4-demethoxy-3′-deamino-3′-aziridinyl-4′-methansulfonyl daunorubicin]
[1]; [5]
  N° of Tumor-Free Survivors: 0/9
  T-C N° of days (tumor growth delay, 1 g): 5 days
  T.I. % (tumor inhibition): 48%
  Tox (number of toxic deaths/number of mice): 0/9
[1]; Table 2, Ia alone 1.5 mg/kg/day iv q4dx3, day 14
  Body weight Reduction % (day): 9(14) %
[1]; [6]
  N° of Tumor-Free Survivors: 0/8
  T-C N° of days (tumor growth delay, 1 g): 9 days
  T.I. % (tumor inhibition): 69%
  Tox (number of toxic deaths/number of mice): 0/8
[1]; Table 3, Ia alone 2 mg/kg/day iv +7,11,15, day 13
  Body weight Reduction % (day): 11%
[2]; [7]
  ILS % (increase in life span): 83%
  Tox (number of toxic deaths/number of mice): 0/10
MX1 mammary carcinoma; [8]
  Body weight Reduction % (day): 0%
  N° of Tumor-Free Survivors: 0/8
  T.I. % (tumor inhibition): 46%
  TGD (lg) days (tumor growth delay treated - control): 1 days
  Tox (number of toxic deaths/number of mice): 0/8
MX1 mammary carcinoma; [9]
  N° of Tumor-Free Survivors: 1/7
  T.I. % (tumor inhibition): 94%
  TGD (lg) days (tumor growth delay treated - control): 2 days
  Tox (number of toxic deaths/number of mice): 0/7
MX1 mammary carcinoma; Ia alone 1 mg/kg/day iv 8,12,16, day 17
  Body weight Reduction % (day): 5%
[3]; [10]
  N° of Tumor-Free Survivors: 0/7
  T-C N° of days (tumor growth delay, 1 g): 47 days
  T.I. % (tumor inhibition): 100%
  Tox (number of toxic deaths/number of mice): 0/7
[3]; Ia alone 1.5 mg/kg/day iv q4dx3, day 15
  Body weight Reduction % (day): 7%

## O=C1[O][Pt]2([NH][C@@H]3CCCC[C@H]3[NH]2)[O]C1=O [Oxaliplatinum, Oxaliplatin]
[2]; Oxaliplatinum alone 8 mg/kg/day ip day +3
  ILS % (increase in life span): 83%

## CC(=O)O[C@H]1C(=O)[C@@]2(C)[C@H]([C@H](OC(=O)c3ccccc3)[C@]3(O)C[C@H](OC(=O)[C@H](O)[C@@H](NC(=O)c4ccccc4)c4ccccc4)C(C)=C1C3(C)C)[C@]1(OC(C)=O)CO[C@@H]1C[C@@H]2O [Paclitaxel]
[1]; [11]
  Body weight Reduction % (day): 0%
  N° of Tumor-Free Survivors: 0/8
  T-C N° of days (tumor growth delay, 1 g): 27 days
  T.I. % (tumor inhibition): 90%
  Tox (number of toxic deaths/number of mice): 0/8
[1]; [12]
  Body weight Reduction % (day): 0%
  N° of Tumor-Free Survivors: 0/8
  T-C N° of days (tumor growth delay, 1 g): 29 days
  T.I. % (tumor inhibition): 93%
  Tox (number of toxic deaths/number of mice): 0/8
[3]; [13]
  Body weight Reduction % (day): 0%
  N° of Tumor-Free Survivors: 0/7
  T-C N° of days (tumor growth delay, 1 g): 9 days
  T.I. % (tumor inhibition): 80%
  Tox (number of toxic deaths/number of mice): 0/7
[3]; [14]
  N° of Tumor-Free Survivors: 0/7
  T-C N° of days (tumor growth delay, 1 g): 12 days
  T.I. % (tumor inhibition): 86%
  Tox (number of toxic deaths/number of mice): 0/7
[3]; Paclitaxel alone 33 mg/kg/day iv q4dx3, day 13
  Body weight Reduction % (day): 3%

## CC(=O)O[C@@]12CO[C@@H]1C[C@H](O)[C@@]1(C)C(=O)[C@H](O)C3=C(C)[C@@H](OC(=O)[C@H](O)[C@@H](NC(=O)OC(C)(C)C)c4ccccc4)C[C@@](O)([C@@H](OC(=O)c4ccccc4)[C@H]21)C3(C)C [Taxotere, Docetaxel]
MX1 mammary carcinoma; [15]
  Body weight Reduction % (day): 0%
  N° of Tumor-Free Survivors: 0/8
  T.I. % (tumor inhibition): 60%
  TGD (lg) days (tumor growth delay treated - control): 1 days
  Tox (number of toxic deaths/number of mice): 0/8
MX1 mammary carcinoma; [16]
  N° of Tumor-Free Survivors: 2/8
  T.I. % (tumor inhibition): 99%
  TGD (lg) days (tumor growth delay treated - control): 42 days
  Tox (number of toxic deaths/number of mice): 0/8
MX1 mammary carcinoma; Taxotere alone 10 mg/kg/day iv 10,14,18, day 25
  Body weight Reduction % (day): 8%
